Assay results: PubChem BioAssay AID1963431 (Molecular Pharmacology Branch, DTP, NCI, 2024)

System: Rh18 complex spheroid viability, percent test/control
Assay: Anticancer human tumor Rh18 cell line growth inhibition [Asc];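 further: spheroids exposed to compound for 7 days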;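 on viability, T/C: 100% = DMSO vehicle control wells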
Settings: for IC50: curve of first compound; for viability, T/C: stronger effect = lower value
How it was run: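 Complex spheroids combining tumor cells with HUVEC endothelial cells and human MSCs, at 37 degrees C, 5% CO2; agents tested alone or combined, half-log dilutions from at or near clinical Cmax, or 10 microM if Cmax unknown.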

In the case of `C=CC(=O)N1CCN(c2nc(=O)n(-c3c(C)ccnc3C(C)C)c3nc(-c4c(O)cccc4F)c(F)cc23)C(C)C1` (stereo not given) + CCN1C(C(=O)NC23CCC(C(=O)O)(CC2)CC3)C(c2cccc(Cl)c2F)C2(C(=O)Nc3cc(Cl)ccc32)C12CCCCC2, the IC50 (second compound 0.03 µM) is reported as under 31.6 nM, the IC50 (second compound 0.0949 µM) is reported as under 31.6 nM and the IC50 (second compound 0.3 µM) is reported as under 31.6 nM. The IC50 (second compound 0.949 µM) was under 31.6 nM, the IC50 (second compound 3 µM) was under 31.6 nM and the viability, T/C (second compound 0.03 µM, first compound 0.0316 µM) was 37.6%. It also gave a viability, T/C (second compound 0.03 µM, first compound 0.1 µM) of 36.2%, a viability, T/C (second compound 0.03 µM, first compound 0.316 µM) of 46.5% and a viability, T/C (second compound 0.03 µM, first compound 1 µM) of 46.7%. For the same molecule, the viability, T/C (second compound 0.03 µM, first compound 3.16 µM) was 58.2%, the viability, T/C (second compound 0.03 µM, first compound 10 µM) was 60.7% and the viability, T/C (second compound 0.0949 µM, first compound 0.0316 µM) was 23.6%. The viability, T/C (second compound 0.0949 µM, first compound 0.1 µM) was 19.3%, the viability, T/C (second compound 0.0949 µM, first compound 0.316 µM) was 24.4% and the viability, T/C (second compound 0.0949 µM, first compound 1 µM) was 23.5%. The viability, T/C (second compound 0.0949 µM, first compound 3.16 µM) was 30.1%, the viability, T/C (second compound 0.0949 µM, first compound 10 µM) was 25.4% and the viability, T/C (second compound 0.3 µM, first compound 0.0316 µM) was 13.3%. It also gave a viability, T/C (second compound 0.3 µM, first compound 0.1 µM) of 13.7%, a viability, T/C (second compound 0.3 µM, first compound 0.316 µM) of 15% and a viability, T/C (second compound 0.3 µM, first compound 1 µM) of 12.9%. For the same molecule, the viability, T/C (second compound 0.3 µM, first compound 3.16 µM) was 15.6%, the viability, T/C (second compound 0.3 µM, first compound 10 µM) was 16% and the viability, T/C (second compound 0.949 µM, first compound 0.0316 µM) was 9.37%. The viability, T/C (second compound 0.949 µM, first compound 0.1 µM) was 9.94%, the viability, T/C (second compound 0.949 µM, first compound 0.316 µM) was 11.2% and the viability, T/C (second compound 0.949 µM, first compound 1 µM) was 9.73%. It also gave a viability, T/C (second compound 0.949 µM, first compound 3.16 µM) of 14.4%, a viability, T/C (second compound 0.949 µM, first compound 10 µM) of 12.8% and a viability, T/C (second compound 3 µM, first compound 0.0316 µM) of 9.88%. It also gave a viability, T/C (second compound 3 µM, first compound 0.1 µM) of 10%, a viability, T/C (second compound 3 µM, first compound 0.316 µM) of 9.57% and a viability, T/C (second compound 3 µM, first compound 1 µM) of 11.9%. For the same molecule, the viability, T/C (second compound 3 µM, first compound 3.16 µM) was 13.1% and the viability, T/C (second compound 3 µM, first compound 10 µM) was 14.1%.
